Test results from the supplement of paper PMC6045584.
± gives the standard deviation of the averaged measurements.

compound: C[C@]1(O)C[C@@H](c2nc(-c3ccc4ccc(-c5ccccc5)nc4c3)c3c(N)nccn32)C1 [OSI-906]; test: surviving fraction relative to DMSO-only wells; higher = less growth inhibition; conditions: 50 nM; exposure time: 5 days
Summary of the method: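 Surviving fraction was calculated by normalising CellTiter-Glo luminescence to the median of DMSO-only wells. Tumour cell lines in log phase were seeded in 384-well plates at 250–500 cells per well, and 24 hours later were exposed continuously for five days to inhibitors at 0.5, 1, 5, 10, 50, 100, 500 and 1000 nM.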

| Test System | surviving fraction |
| --- | --- |
| 22RV1 PROSTATE | 0.902 ± 0.049 |
| 93VU HEADNECK | 0.974 ± 0.069 |
| 143B BONE | 0.959 ± 0.083 |
| A549 LUNG | 0.96 ± 0.029 |
| ASKA SYNOVIAL | 1.11 ± 0.13 |
| BT20 BREAST | 1 ± 0.031 |
| BT549 BREAST | 1.11 ± 0.18 |
| CADOES1 SOFT TISSUE | 0.847 ± 0.14 |
| CAL51 BREAST | 1.01 ± 0.02 |
| CAL72 BONE | 1 ± 0.038 |
| CAL120 BREAST | 0.901 ± 0.04 |
| CASKI CERVIX | 0.976 ± 0.067 |
| CCK81 LARGE INTESTINE | 0.726 ± 0.17 |
| CHLA90 AUTONOMIC GANGLIA | 0.832 ± 0.059 |
| CME SYNOVIAL | 1.08 ± 0.058 |
| COLO320DM LARGE INTESTINE | 0.875 ± 0.04 |
| DU4475 BREAST | 0.785 ± 0.18 |
| G292 BONE | 0.728 ± 0.059 |
| H23 LUNG | 0.879 ± 0.031 |
| HCC38 BREAST | 1.1 ± 0.19 |
| HCC78 LUNG | 0.801 ± 0.15 |

| Test System | surviving fraction |
| --- | --- |
| HCC202 BREAST | 1.1 ± 0.021 |
| HCC1806 BREAST | 0.962 ± 0.077 |
| HMLE3 BREAST | 0.875 ± 0.047 |
| HMT3552 BREAST | 1.05 ± 0.05 |
| HOS BONE | 0.965 ± 0.02 |
| HOSMNG BONE | 0.854 ± 0.086 |
| HS57T BREAST | 0.934 ± 0.032 |
| HSSYII SYNOVIAL | 0.814 ± 0.026 |
| HT1080 SOFT TISSUE | 0.979 ± 0.039 |
| HU09 BONE | 0.854 ± 0.11 |
| HUO3N1 BONE | 0.975 ± 0.047 |
| JIMT1 BREAST | 1.02 ± 0.039 |
| LM7 BONE | 0.867 ± 0.011 |
| LNCAP PROSTATE | 0.991 ± 0.12 |
| MDAMB134 BREAST | 0.732 ± 0.016 |
| MDAMB157 BREAST | 0.957 ± 0.11 |
| MDAMB231 BREAST | 0.957 ± 0.031 |
| MDAMB361 BREAST | 0.847 ± 0.067 |
| MDAMB436 BREAST | 0.948 ± 0.11 |
| MDAMB468 BREAST | 1.06 ± 0.087 |

same assay, conditions: 100 nM; exposure time: 5 days

| Test System | surviving fraction |
| --- | --- |
| 22RV1 PROSTATE | 0.928 ± 0.077 |
| 93VU HEADNECK | 0.848 ± 0.014 |
| 143B BONE | 0.99 ± 0.011 |
| A549 LUNG | 0.97 ± 0.031 |
| ASKA SYNOVIAL | 1.12 ± 0.045 |
| BT20 BREAST | 1.05 ± 0.095 |
| BT549 BREAST | 0.984 ± 0.059 |
| CADOES1 SOFT TISSUE | 0.886 ± 0.1 |
| CAL51 BREAST | 0.992 ± 0.031 |
| CAL72 BONE | 0.98 ± 0.028 |
| CAL120 BREAST | 0.9 ± 0.066 |
| CASKI CERVIX | 0.965 ± 0.064 |
| CCK81 LARGE INTESTINE | 0.668 ± 0.13 |
| CHLA90 AUTONOMIC GANGLIA | 0.792 ± 0.084 |
| CME SYNOVIAL | 1.14 ± 0.21 |
| COLO320DM LARGE INTESTINE | 0.818 ± 0.076 |
| DU4475 BREAST | 0.553 ± 0.043 |
| G292 BONE | 0.624 ± 0.021 |
| H23 LUNG | 0.848 ± 0.061 |
| HCC38 BREAST | 1.12 ± 0.019 |
| HCC78 LUNG | 0.831 ± 0.13 |

| Test System | surviving fraction |
| --- | --- |
| HCC202 BREAST | 1.07 ± 0.15 |
| HCC1806 BREAST | 1.07 ± 0.064 |
| HMLE3 BREAST | 0.901 ± 0.079 |
| HMT3552 BREAST | 0.954 ± 0.023 |
| HOS BONE | 0.963 ± 0.013 |
| HOSMNG BONE | 0.993 ± 0.1 |
| HS57T BREAST | 0.881 ± 0.023 |
| HSSYII SYNOVIAL | 0.746 ± 0.04 |
| HT1080 SOFT TISSUE | 0.921 ± 0.027 |
| HU09 BONE | 0.785 ± 0.027 |
| HUO3N1 BONE | 0.88 ± 0.029 |
| JIMT1 BREAST | 1.08 ± 0.094 |
| LM7 BONE | 0.771 ± 0.048 |
| LNCAP PROSTATE | 1.05 ± 0.1 |
| MDAMB134 BREAST | 0.72 ± 0.0071 |
| MDAMB157 BREAST | 0.855 ± 0.056 |
| MDAMB231 BREAST | 0.947 ± 0.013 |
| MDAMB361 BREAST | 0.842 ± 0.011 |
| MDAMB436 BREAST | 0.89 ± 0.068 |
| MDAMB468 BREAST | 1.03 ± 0.036 |

same assay, conditions: 500 nM; exposure time: 5 days

| Test System | surviving fraction |
| --- | --- |
| 22RV1 PROSTATE | 0.911 ± 0.14 |
| 93VU HEADNECK | 0.711 ± 0.021 |
| 143B BONE | 0.9825 ± 0.0078 |
| A549 LUNG | 0.935 ± 0.027 |
| ASKA SYNOVIAL | 0.966 ± 0.083 |
| BT20 BREAST | 1.23 ± 0.05 |
| BT549 BREAST | 1.1 ± 0.096 |
| CADOES1 SOFT TISSUE | 0.871 ± 0.059 |
| CAL51 BREAST | 0.948 ± 0.029 |
| CAL72 BONE | 0.893 ± 0.048 |
| CAL120 BREAST | 0.895 ± 0.046 |
| CASKI CERVIX | 0.982 ± 0.068 |
| CCK81 LARGE INTESTINE | 0.414 ± 0.13 |
| CHLA90 AUTONOMIC GANGLIA | 0.78 ± 0.056 |
| CME SYNOVIAL | 0.984 ± 0.095 |
| COLO320DM LARGE INTESTINE | 0.572 ± 0.048 |
| DU4475 BREAST | 0.41 ± 0.024 |
| G292 BONE | 0.579 ± 0.04 |
| H23 LUNG | 0.662 ± 0.016 |
| HCC38 BREAST | 1.16 ± 0.14 |
| HCC78 LUNG | 0.764 ± 0.059 |

| Test System | surviving fraction |
| --- | --- |
| HCC202 BREAST | 0.862 ± 0.18 |
| HCC1806 BREAST | 0.883 ± 0.04 |
| HMLE3 BREAST | 0.783 ± 0.035 |
| HMT3552 BREAST | 0.828 ± 0.073 |
| HOS BONE | 0.901 ± 0.013 |
| HOSMNG BONE | 0.957 ± 0.056 |
| HS57T BREAST | 0.915 ± 0.047 |
| HSSYII SYNOVIAL | 0.673 ± 0.03 |
| HT1080 SOFT TISSUE | 0.899 ± 0.03 |
| HU09 BONE | 0.517 ± 0.087 |
| HUO3N1 BONE | 0.779 ± 0.031 |
| JIMT1 BREAST | 1.02 ± 0.077 |
| LM7 BONE | 0.48 ± 0.023 |
| LNCAP PROSTATE | 1.04 ± 0.032 |
| MDAMB134 BREAST | 0.587 ± 0.016 |
| MDAMB157 BREAST | 0.872 ± 0.037 |
| MDAMB231 BREAST | 0.922 ± 0.014 |
| MDAMB361 BREAST | 0.758 ± 0.015 |
| MDAMB436 BREAST | 0.985 ± 0.15 |
| MDAMB468 BREAST | 0.851 ± 0.09 |

same assay, conditions: 1000 nM; exposure time: 5 days

| Test System | surviving fraction |
| --- | --- |
| 22RV1 PROSTATE | 0.803 ± 0.11 |
| 93VU HEADNECK | 0.724 ± 0.23 |
| 143B BONE | 0.989 ± 0.023 |
| A549 LUNG | 0.908 ± 0.025 |
| ASKA SYNOVIAL | 0.97 ± 0.029 |
| BT20 BREAST | 1.28 ± 0.04 |
| BT549 BREAST | 0.94 ± 0.067 |
| CADOES1 SOFT TISSUE | 0.962 ± 0.023 |
| CAL51 BREAST | 0.922 ± 0.074 |
| CAL72 BONE | 0.861 ± 0.082 |
| CAL120 BREAST | 0.893 ± 0.058 |
| CASKI CERVIX | 0.982 ± 0.051 |
| CCK81 LARGE INTESTINE | 0.327 ± 0.058 |
| CHLA90 AUTONOMIC GANGLIA | 0.725 ± 0.082 |
| CME SYNOVIAL | 0.823 ± 0.13 |
| COLO320DM LARGE INTESTINE | 0.528 ± 0.032 |
| DU4475 BREAST | 0.36 ± 0.08 |
| G292 BONE | 0.553 ± 0.045 |
| H23 LUNG | 0.607 ± 0.03 |
| HCC38 BREAST | 1.07 ± 0.24 |
| HCC78 LUNG | 0.842 ± 0.12 |

| Test System | surviving fraction |
| --- | --- |
| HCC202 BREAST | 0.839 ± 0.18 |
| HCC1806 BREAST | 0.826 ± 0.036 |
| HMLE3 BREAST | 0.724 ± 0.12 |
| HMT3552 BREAST | 0.748 ± 0.035 |
| HOS BONE | 0.88 ± 0.031 |
| HOSMNG BONE | 1 ± 0.032 |
| HS57T BREAST | 0.826 ± 0.082 |
| HSSYII SYNOVIAL | 0.656 ± 0.026 |
| HT1080 SOFT TISSUE | 0.869 ± 0.057 |
| HU09 BONE | 0.481 ± 0.04 |
| HUO3N1 BONE | 0.794 ± 0.035 |
| JIMT1 BREAST | 1.02 ± 0.046 |
| LM7 BONE | 0.435 ± 0.025 |
| LNCAP PROSTATE | 1.06 ± 0.026 |
| MDAMB134 BREAST | 0.616 ± 0.088 |
| MDAMB157 BREAST | 0.884 ± 0.086 |
| MDAMB231 BREAST | 0.908 ± 0.032 |
| MDAMB361 BREAST | 0.797 ± 0.033 |
| MDAMB436 BREAST | 0.855 ± 0.12 |
| MDAMB468 BREAST | 0.846 ± 0.019 |
